Legend:
[1] = system: adalimumab producing cell line 1; assay: Cell growth, viability and titer, bioreactor culture, cell line 1; type: cell-based; details: Example 2; 2DDG 0.25 g/l; versus control
Experimental: For the bioreactor (3 L Applikon) experiments (Examples 1, 2 and 3), 3 L, bioreactors (1.5 L working volume) were initiated at 35° C. (cell line 1) and 36° C. (cell line 2), 30% DO, 200 rpm, pH of 7.1. In some of the conditions, pH was ramped down to 6.8 in three days and kept at pH 6.8 thereafter. The inclusion of pH ramp for a particular condition is indicated by the final pH in the experimental design. If the final pH is 7.1, then it indicates no pH ramp was performed, whereas if the final pH is 6.8, a pH ramp was performed on day 3 from pH 7.1 to pH 6.8. In some of the conditions, a temperature shift was performed. When temperature shift was performed, the temperature was lowered to 33° C. Again, the conditions where such a temperature shift was performed can be identified from the final temperature in the experimental design. Cultures were run in extended batch mode with the addition of a desired amount of 40% glucose stock solution was fed based on glucose measurements. […]
(§1) The cells were grown to maximum viable cell densities (VCD) in the range of 10-14×10^6 cells/ml for the different conditions tested. […] Samples were subsequently analyzed using Poros A for titer and WCX-10 post protein A purification. Based on the WCX-10 chromatograms, the percentages of total peak(s) area corresponding to the acidic species were quantified. […]

[2] = system: adalimumab producing cell line 1; assay: Lys-C peptide mapping for MGO modification of adalimumab, cell line 1; type: cell-based; details: Example 3
From the text: Typical trypsin digestion for peptide mapping cleaves a denatured, reduced and alkylated protein at the carboxyl side of the two basic amino acids, lysine and arginine. Methylglyoxal (MGO) is a small molecule metabolite derived as a glycolysis byproduct which can modify arginine residues. A modification of an arginine prevents trypsin from cutting this site and results in a mis-cleavage. The challenge of quantifying the amount of MGO modified peptide is that, it is not compared to an equivalent non-modified peptide but rather to two parental cleaved peptides. The two parental cleaved peptides likely have different ionization potential as compared to that of the modified peptide. In order to determine a truly accurate direct measurement of an MGO-modified peptide, it is compared to its non-modified counterpart and expressed as a percentage. Using endoproteinase lysine-C as an alternative enzyme, cleavages only occur at lysine residues. The result is a direct comparison of the same peptide with and without an MGO modification, which provides a high degree of accuracy in quantifying even trace levels of the modified species.
Procedure: Samples were dilated to a nominal concentration of 4 mg/mL. 8 M guanidine-HCl was added to the sample in a 3:1 ratio resulting in a 1 mg/mL concentration in 6M guanidine-HCl. […] Samples were analyzed by LC/MS peptide mapping. […] Eluting peaks were monitored using a Thermo Scientific LTQ-Orbitrap Mass Spectrometer. Specific mass traces were extracted for both modified and non-modified peptides in order to accurately quantify the total amount of MGO modification at each site. Mass spectra were also analyzed for the specific region of the chromatogram to confirm the peptide identity.
as §1

O=CC[C@@H](O)[C@H](O)[C@H](O)CO [Test 2DDG, 2-Deoxy-D-Glucose]
cell growth and viability profile [1]: slight increase | MGO modification ([2]; 2DDG 0.25 g/l alone, day 11 harvest, control 32.01%): 18.03% | MGO modification ([2]; 2DDG and temperature shift combined with arginine supplementation and/or lower pH): substantial reduction | MGO protein modification ([2]; 2DDG, temperature shift, lower pH and arginine supplementation all combined, day 11 harvest, control 32.01%): 0.02%

From patent US20160115225A1, “Methods of Reducing Methylglyoxal (MGO) Modification of Recombinant Proteins in Cell Culture” (AbbVie Inc., priority 2014, published 2016)
